Reference: patent US5098708A
In brackets after ≈: the same amount, converted by molar mass. Where two headings read alike, the source gives them in different places.

Tests used:
[1] = system: herpes simplex virus type 1 (HSV-1); assay: microbe, parasite or virus in culture; type: cell-based; conditions: for ID50 HSV-Vero cell: Table 8, 72 hours incubation, 50% inhibition of cytopathic effect
Vero cell = conditions: Table 8; 50% cytotoxicity against Vero cell without viral infection; 4320 min
[2] = Solubility in water and organic solvents; type: physicochemical
[3] = system: human immunodeficiency virus (HIV) LAV/BRU; conditions: CEM-F cells; drug amount reducing viral replication by 50%
Protocol: AZT was included as a reference compound. The methodology used in this assay is described below:
The cells and the virus were grown in LAV/CEM medium. The medium consists of RPMI 1640, supplemented with 1% L-glutamine, 100 U/ml of Penicillin, 100 μg/ml Streptomycin, 2 μg/ml Polybrene and 10% heat-inactivated fetal bovine serum (HyClone Labs). […] The virus was adapted to CEM cells, and infectious virus stocks were stored as cell-free supernatant fluids in 1 ml aliquots in liquid nitrogen. The titer of the stock was determined by an end point titration method using CEM cells in 96-well microtiter plates. The titration was done with ten replicates for each point, and the 50% tissue culture infective dose (TCID50) was calculated using the method of Reed and Muench (Amer. J. Hygiene, 27/3 (1938) 493-497).
The CEM cells (1.5×10^5 cells/ml) were placed in 96-well plates and incubated with virus for 45 minutes. After 45 minutes each compound was added in quadruplicate. At the end of the day, six supernatants were tested for presence of viral core protein p24gag in an antigen capture ELISA (Genetic Systems Company). The OD readings (absorbance at 450/630 nm) fall into three categories: Experimentals=values from wells containing cells, viral inoculum and drug; Controls=values from wells with cells and virus (100%); and Background=values from wells with viral inoculum alone. […]

[4] = system: Madin Darby canine kidney (MDCK) cell; assay: Drug-induced cytotoxicity against MDCK cells without viral infection (dye-uptake assay); conditions: Table 8; 50% cytotoxicity against MDCK cell without viral infection; 4320 min
uninfected CEM cells = conditions: human, 7200 min
Protocol: The cells and the virus were grown in LAV/CEM medium. The medium consists of RPMI 1640, supplemented with 1% L-glutamine, 100 U/ml of Penicillin, 100 μg/ml Streptomycin, 2 μg/ml Polybrene and 10% heat-inactivated fetal bovine serum (HyClone Labs).
The toxicities of the drugs were tested against uninfected CEM cells. The CEM cells were plated as described above, and culture for five days in the presence or absence of drugs. On day five 1 μCi/well of ^3 H-thymidine was added, and cells were harvested 3 hours later. The results are expressed as toxic dose 50 (TD50) and represent the amount of drug necessary to reduce the cell proliferation by 50% as measured through thymidine incorporation.

influenza virus A = assay: microbe, parasite or virus in culture; type: cell-based; conditions: 72 hours incubation, 50% inhibition of cytopathic effect; for ID50 Influenza virus-MDCK cell: Table 8; for IC50: unidentified influenza virus, MDCK, 72 h
[5] = Drug-induced cytotoxicity against MDCK cells without viral infection (dye-uptake assay); conditions: dog, mdck cells, TD50 Influenza virus-MDCK cell
[6] = Cellular toxicity in CEM-SS cells (XTT assay); type: cell-based; conditions: human
Description: CEM-SS cells were obtained from Owen Weislow at the National Cancer Institute.

[7] = system: human immunodeficiency virus (LAVBRU strain); assay: Anti-HIV XTT assay in CEM-SS cells; type: cell-based; conditions: Human immunodeficiency virus 1, 144 h, six days post infection, read-out: ED50 (XTT assay)
Description: The antiviral effect is expressed as the concentration of compound which increases the number of viable cells in infected cultures to 50% that of the untreated, uninfected control cultures (ED50) The cellular toxicity is expressed as the concentration of compound which reduces the number of viable cells to 50% that of the untreated control (TD50).

in vitro = conditions: monkey, vero cells
HIV antigen = assay: Expression of HIV antigen in infected MT-4 cells by immunofluorescence; type: cell-based
Protocol: Expression of HIV antigen was examined by immunofluorescence. When MT-4 cells were infected with HIV, viral antigen positive cells increased with incubation time and all the cells became positive on day 6 after infection.

[8] = system: reverse transcriptase (RTase) derived from avian myeloblastosis virus (AMV); type: biochemical

C/C1=C\C=C\C2C=C(CO[C@H]3O[C@H](CO)[C@H](O)[C@H](O)[C@H]3O)C(C)CC23OC(O)C(C3=O)C(O)/C=C/C2(C)C=C(CO)C(C)CC23OC(O)C(C3=O)C(O)/C(C)=C/C=C/C2(C)C=C(CO[C@H]3O[C@H](CO)[C@H](O)[C@H](O)[C@H]3O)C(C)CC23OC(O)C(C3=O)C(O)/C=C/C2(C)C=C(C=O)C(C)CC23OC(O)C(C3=O)C1O (stereo partly shown)
ID50 HSV-Vero cell [1]: 11 µg/mL (≈ 7.29 µM) | TD50 HSV-Vero cell (Vero cell): > 200 µg/mL | Solubility in acetone [2]: slightly soluble | Solubility in dimethylformamide and dimethyl sulfoxide [2]: soluble | Solubility in methanol [2]: slightly soluble | Solubility in other organic solvents [2]: practically insoluble | Solubility in water [2]: soluble | ED50 (p24gag antigen capture assay) [3]: 2.5 µg | TD50 Influenza virus-MDCK cell [4]: 150 µg/mL | TD50 (thymidine incorporation) (uninfected CEM cells): > 100 µg | ID50 Influenza virus-MDCK cell (influenza virus A): > 150 µg/mL

NC(=O)c1ncn([C@@H]2O[C@H](CO)[C@@H](O)[C@H]2O)n1 [Ribavirin, reference compound]
CC50 at 72 h ([5]; Table 8, 50% cytotoxicity against MDCK cell without viral infection): > 200 µg/mL | CC50 at 72 h ([5]; Table 10, 50% cytotoxicity against MDCK cells without viral infection): > 100 µg/mL | IC50 (influenza virus A; read-out: ID50 Influenza virus-MDCK cell, Table 8): 15 µg/mL (≈ 61.4 µM) | IC50 (influenza virus A; read-out: ID50 Influenza virus-MDCK cell, Table 10): 9.5 µg/mL (≈ 38.9 µM)

Cc1cn([C@H]2C[C@H](N=[N+]=[N-])[C@@H](CO)O2)c(=O)[nH]c1=O [AZT]
CC50 at 144 h [6]: > 500 µg/mL | EC50 [7]: 0.005 µg/mL (≈ 0.0187 µM) | TD50 (thymidine incorporation) (uninfected CEM cells): 4.2 µg

Nc1nc2c(ncn2COCCO)c(=O)[nH]1 [Acyclovir]
IC50 ([1]; Human alphaherpesvirus 1, Vero, 72 h, read-out: ID50 HSV-Vero cell): 0.09 µg/mL (≈ 0.4 µM) | CC50 at 72 h (in vitro): > 100 µg/mL

C/C1=C\C=C\C2(C)C=C(CO[C@H]3O[C@H](CO)[C@H](O)[C@H](O)[C@H]3O)C(C)CC23OC(O)C(C3=O)C(O)/C=C/C2(C)C=C(C=O)C(C)CC23OC(O)C(C3=O)C(O)/C(C)=C/C=C/C2C=C(CO[C@H]3O[C@H](CO)[C@H](O)[C@H](O)[C@H]3O)C(C)CC23OC(O)C(C3=O)C(O)/C=C/C2(C)C=C(C=O)C(C)CC23OC(O)C(C3=O)C1O (stereo partly shown)
ID50 HSV-Vero cell [1]: 11 µg/mL (≈ 7.3 µM) | TD50 HSV-Vero cell (Vero cell): > 400 µg/mL | Solubility in acetone [2]: slightly soluble | Solubility in dimethylformamide and dimethyl sulfoxide [2]: soluble | Solubility in methanol [2]: slightly soluble | Solubility in other organic solvents [2]: practically insoluble | Solubility in water [2]: soluble | HIV antigen positive cells (suppression) (HIV antigen; HIV-infected MT-4 cells cultured in the presence of compound): significantly suppressed | HIV antigen positive cells (HIV antigen; HIV-infected MT-4 cells, concentration higher than 50 μg/ml, FIG. 10): less than 1% | ED50 (p24gag antigen capture assay) [3]: 3.2 µg | TD50 Influenza virus-MDCK cell [4]: 250 µg/mL | AMV reverse transcriptase % inhibition ([8]; 3 μg/ml): 96.9% | AMV reverse transcriptase activity, count ([8]; 3 μg/ml): 1,584 ± 1,292 cpm | AMV reverse transcriptase % inhibition ([8]; 6 μg/ml): 98.1% | AMV reverse transcriptase activity, count ([8]; 6 μg/ml): 976 ± 145 cpm | AMV reverse transcriptase % inhibition ([8]; 12.5 μg/ml): 98.2% | AMV reverse transcriptase activity, count ([8]; 12.5 μg/ml): 920 ± 271 cpm | AMV reverse transcriptase % inhibition ([8]; 25 μg/ml): 98.8% | AMV reverse transcriptase activity, count ([8]; 25 μg/ml): 621 ± 402 cpm | AMV reverse transcriptase % inhibition ([8]; 50 μg/ml): 99.5% | AMV reverse transcriptase activity, count ([8]; 50 μg/ml): 235 ± 73 cpm | AMV reverse transcriptase % inhibition ([8]; 100 μg/ml): 99.7% | AMV reverse transcriptase activity, count ([8]; 100 μg/ml): 159 ± 14 cpm | Inhibition of 1 unit of AMV RTase activity ([8]; concentrations higher than 3 μg/ml): more than 95% | TD50 (thymidine incorporation) (uninfected CEM cells): > 100 µg | ID50 Influenza virus-MDCK cell (influenza virus A): 150 µg/mL (≈ 99.5 µM)
